33 compounds from US9055743B2, “Alpha, beta-unsaturated imines” (BAYER INTELLECTUAL PROPERTY GMBH, priority 2010, dated 2015) can be followed below.

What all share (format): in vivo
In series [1] the test system is greenhouse red spider mite (Tetranychus urticae). As to the kind of experiment: Tetranychus test; OP-resistant (TETRUR spray treatment). Particulars: 500 g/ha, spray, after 6 days. As to the method: Tetranychus Test; OP-Resistant (TETRUR Spray Treatment) Solvents: 78.0 parts by weight of acetone • • 1.5 parts by weight of dimethylformamide Emulsifier: 0.5 part by weight of alkylaryl polyglycol ether
(§1) To produce a suitable preparation of active compound, 1 part by weight of active compound is mixed with the stated amounts of solvents and emulsifier, and the concentrate is diluted with emulsifier-containing water to the desired concentration.
Discs of bean leaves (Phaseolus vulgaris) infested by all stages of the greenhouse red spider mite (Tetranychus urticae) are sprayed with an active compound preparation of the desired concentration.
After 6 days, the activity in % is determined. 100% means that all spider mites have been killed; 0% means that none of the spider mites have been killed.

Series [2] has as its system green peach aphid (Myzus persicae). Put plainly: Myzus test (MYZUPE spray treatment). Particulars: 500 g/ha, spray, after 6 days. On the procedure: Myzus Test (MYZUPE Spray Treatment) Solvents: 78 parts by weight of acetone • • 1.5 parts by weight of dimethylformamide Emulsifier: 0.5 part by weight of alkylaryl polyglycol ether
as §1
Discs of Chinese cabbage leaves (Brassica pekinensis) which are infested by all stages of the green peach aphid (Myzus persicae) are sprayed with an active compound preparation of the desired concentration.
After 6 days, the activity in % is determined. 100% means that all aphids have been killed; 0% means that none of the aphids have been killed.

The test system of series [3] is larvae of the mustard beetle (Phaedon cochleariae). Put plainly: Phaedon test (PHAECO spray treatment). Particulars: 500 g/ha, spray, after 7 days. On the procedure:
Phaedon Test ([…] Spray Treatment) Solvents: 78.0 parts by weight of acetone • • 1.5 parts by weight of dimethylformamide Emulsifier: 0.5 part by weight of alkylaryl polyglycol ether To produce a suitable preparation of active compound, 1 part by weight of active compound is mixed with the stated amounts of solvents and emulsifiers, and the concentrate is diluted with emulsifier-containing water to the desired concentration. Discs of Chinese cabbage leaves (Brassica pekinensis) are sprayed with an active compound preparation of the desired concentration and, after drying, populated with larvae of the mustard beetle (Phaedon cochleariae).

Series [4] relates to caterpillars of the army worm (Spodoptera frugiperda). Put plainly: Spodoptera frugiperda test (SPODFR spray treatment). Particulars: 500 g/ha, spray, after 7 days. As to the method:
Spodoptera frugiperda Test (SPODFR Spray Treatment) Solvents: 78.0 parts by weight of acetone • • 1.5 parts by weight of dimethylformamide Emulsifier: 0.5 part by weight of alkylaryl polyglycol ether
as §1
Discs of maize leaves (Zea mays) are sprayed with an active compound preparation of the desired concentration and, after drying, populated with caterpillars of the army worm (Spodoptera frugiperda) besetzt.
After 7 days, the activity in % is determined. 100% means that all caterpillars have been killed; 0% means that none of the caterpillars have been killed.

Series [5] has as its system Anopheles gambiae (homocygus kdr). As to the kind of experiment: Anopheles test (ANPHGB surface treatment). The settings on record: exposition 30 minutes; for activity (mortality in %): 100 mg/m^2, 24 hours after contact; for knock-down activity: 100 mg/m^2, two hours after contact. As to the method: Anopheles Test (ANPHGB Surface Treatment) Solvent: Acetone
To produce a suitable preparation of active compound, the active compound is dissolved in acetone (2 mg/ml). The active compound preparation is pipetted onto a glazed tile and, after drying, adult mosquitoes of the species Anopheles gambiae (homocygus kdr) are placed onto the treated tile. The exposition time is 30 minutes.
Two hours after contact to the treated surface, the knock-down proportion of the test animals in % is determined.
24 hours after contact to the treated surface, the mortality in % is determined. Here, 100% means that all mosquitoes have been killed; 0% means that none of the mosquitoes has been killed.

Regarding `COc1ccc(SC=C2CCc3ccccc3C2=Nc2ccc(C)cc2)cc1` [Example 1-73], the “activity (spider mites killed)” value in series [1] is 80%.

As to `Cc1ccc(N=C2C(=CSc3ccc(F)cc3)COc3cc(-c4ccccc4)ccc32)cc1` [Example 1-24], in series [2], the “activity (aphids killed)” value is on record as 90%.

Take `CCOC1=CC(=CSc2ccccc2)C(=Nc2ccc(C)cc2)CC1` (mixture of isomers) [Example 1-97]: in series [1], the “activity (spider mites killed)” value was determined as 100%.

With `Cc1cc(C)cc(N=C2C(=CSc3ccc(F)cc3)CCc3ccccc32)c1` [Example 1-67], in series [3], the “activity (beetle larvae killed)” value was 100%. For the same compound, the “activity (caterpillars killed)” value in series [4] is 100%. Also, in series [2], the “activity (aphids killed)” value was found to be 80%.

Consider `Cc1ccc(N=C2c3ccc(F)cc3CCC2C(Sc2ccc(F)cc2)Sc2ccc(F)cc2)cc1` (stereo not shown) [Example 2-6], for which the “activity (mortality in %)” value in series [5] is recorded as 95%.

Regarding `Cc1ccc(N=C2C(=CSc3cccc(F)c3)CCc3ccccc32)cc1` [Example 1-78], in series [3], the “activity (beetle larvae killed)” value worked out at 100%. Further, the “activity (caterpillars killed)” value in series [4] worked out at 100%. For the same compound, the “activity (aphids killed)” value in series [2] is given as 100%. The “activity (spider mites killed)” value in series [1] worked out at 100%.

For `Cc1ccc(N=C2CCC(OC(C)C)=CC2=CSc2ccc(F)cc2)cc1` (mixture of isomers) [Example 1-99], the “activity (spider mites killed)” value in series [1] is listed as 100%.

Take `Cc1ccc(N=C2C(=CSc3ccccc3)CCC/C2=C\Sc2ccccc2)cc1` [Example 1-60, N-{2,6-Bis[(phenylsulphanyl)methylene]cyclohexylidene}-4-methylaniline]: the pest or weed control at 500 g/ha is 100% in series [3] (Phaedon cochleariae, 168 h, read-out: activity (beetle larvae killed)) and 100% in series [4] (Spodoptera frugiperda, 168 h, read-out: activity (caterpillars killed)).

For `Cc1ccc(N=C2C(=CSc3ccc(F)cc3)CCc3ccccc32)cc1F` [Example 1-89], the “activity (beetle larvae killed)” value in series [3] was determined as 100%. Also, the “activity (caterpillars killed)” value in series [4] is listed as 100%. Further, in series [1], the “activity (spider mites killed)” value is 100%. The compound also yielded a knock-down activity in series [5] of 100%.

For the compound `Cc1ccc(N=C2C(=CSc3ccc(F)cc3)CCc3cc(Cl)sc32)cc1` (mixture of isomers) [Example 1-91], in series [3], the “activity (beetle larvae killed)” value was 100%. Moreover, the “activity (caterpillars killed)” value in series [4] is 100%. The “activity (aphids killed)” value in series [2] was determined as 90%. In addition, the “activity (spider mites killed)” value in series [1] amounted to 100%.

On to `Cc1ccc(N=C2C(=CSc3ccc(F)cc3)CCc3cc(C)cc(C)c32)cc1` [Example 1-77], for which the “activity (mortality in %)” value in series [5] was found to be 80%.

With `Cc1ccc(N=C2C(=CSc3ccc(F)cc3)CCc3c(C)cc(C)cc32)cc1` [Example 1-30], the “activity (caterpillars killed)” value in series [4] worked out at 100%. Besides, in series [1], the “activity (spider mites killed)” value was 80%.

`Cc1ccc(N=C2C(=CSc3ccc(F)cc3)C(C)c3cc(Cl)ccc32)cc1` (mixture of isomers) [Example 1-50]: in series [5], the knock-down activity was determined as 85%.

Consider `Cc1ccc2c(c1)C(C)C(=CSc1ccc(F)cc1)C2=Nc1ccc(C)c(C)c1` (mixture of isomers) [Example 1-71], for which the “activity (beetle larvae killed)” value in series [3] is 100%. In addition, in series [4], the “activity (caterpillars killed)” value was 100%. The “activity (aphids killed)” value in series [2] is recorded as 90%. Also, the “activity (spider mites killed)” value in series [1] is reported as 100%. The compound also displayed a knock-down activity in series [5] of 100%.

With `Cc1ccc(N=C2c3cc(F)ccc3CCC2C(Sc2ccc(F)cc2)Sc2ccc(F)cc2)cc1` (stereo not shown) [Example 2-8], in series [4], the “activity (caterpillars killed)” value turned out to be 100%. The “activity (spider mites killed)” value in series [1] worked out at 90%.

As for `Cc1cc(C)cc(N=C2C(=CSc3ccc(F)cc3)C(C)c3cc(C)ccc32)c1` (mixture of isomers) [Example 1-72], the “activity (caterpillars killed)” value in series [4] is on record as 100%.

Regarding `Cc1ccc(N=C2C(=CSc3ccc(F)cc3)COc3cc(C(C)(C)C)ccc32)cc1` [Example 1-75], the “activity (caterpillars killed)” value in series [4] is 100%.

On to `Cc1cccc(N=C2C(=CSc3ccccc3)C(C)c3ccccc32)c1` (mixture of isomers) [Example 1-12], for which the “activity (beetle larvae killed)” value in series [3] is 100%. In series [4], the “activity (caterpillars killed)” value amounted to 100%. Further, in series [1], the “activity (spider mites killed)” value is 100%.

In the case of `COc1ccc(N=C2c3ccccc3CCC2C(Sc2ccccc2)Sc2ccccc2)cc1` (stereo not shown) [Example 2-3], the “activity (mortality in %)” value in series [5] was 95%.

As to `Cc1ccc(N=C2C(=CSc3ccc(F)cc3)CCc3sc(Cl)cc32)cc1` [Example 1-66], in series [3], the “activity (beetle larvae killed)” value was found to be 100%. In series [4], the “activity (caterpillars killed)” value is reported as 100%.

As for `Cc1ccc(N=C2C(=CSc3ccc(F)cc3)C(C)Oc3ccc(F)cc32)cc1` (stereo not shown) [Example 1-25], the “activity (caterpillars killed)” value in series [4] is recorded as 100%.

For the compound `CC1=CC(C)(C)CC(=CSc2ccc(F)cc2)C1=Nc1ccc(C)cc1` [Example 1-93], the “activity (spider mites killed)” value in series [1] turned out to be 90%.

For `C(Sc1ccccc1)=C1C(=Nc2ccccc2)c2ccccc2C1c1ccccc1` (mixture of isomers) [Example 1-19], in series [3], the “activity (beetle larvae killed)” value stood at 100%. Further, the “activity (caterpillars killed)” value in series [4] was found to be 100%. The “activity (aphids killed)” value in series [2] was 100%. In addition, the “activity (spider mites killed)” value in series [1] amounted to 100%.

Regarding `Cc1ccc(N=C2C(=CSC3CCCC3)CCc3ccccc32)cc1` [Example 1-87], the “activity (beetle larvae killed)” value in series [3] was determined as 100%. For the same compound, the “activity (aphids killed)” value in series [2] is recorded as 100%. Besides, the “activity (spider mites killed)” value in series [1] was determined as 100%. The compound further showed a knock-down activity in series [5] of 80%.

In the case of `Cc1ccc(N=C2C(Br)=CC(C)(C)CC2=CSc2ccc(F)cc2)cc1` [Example 1-49], the “activity (caterpillars killed)” value in series [4] is 100%. Also, the “activity (aphids killed)” value in series [2] was found to be 90%.

Turning to `CC(C)c1ccc(N=C2C(=CSc3ccc(F)cc3)CCc3ccccc32)cc1` [Example 1-42], in series [1], the “activity (spider mites killed)” value was determined as 80%.

`Cc1ccc(N=C2c3ccccc3C(c3ccccc3)C2C(Sc2ccccc2)Sc2ccccc2)cc1` (mixture of isomers) [Example 2-9]: the “activity (beetle larvae killed)” value in series [3] turned out to be 100%. Also, the “activity (caterpillars killed)” value in series [4] was found to be 100%. In addition, the “activity (aphids killed)” value in series [2] is reported as 100%. Besides, the “activity (spider mites killed)” value in series [1] worked out at 100%.

On to `Cc1ccc(N=C2C(=CSc3ccc(F)cc3)CCc3c2ccc2ccccc32)cc1F` [Example 1-92], for which the “activity (beetle larvae killed)” value in series [3] was 100%. Further, in series [4], the “activity (caterpillars killed)” value was determined as 100%. Further, the “activity (spider mites killed)” value in series [1] is 100%.

Consider `COc1ccc2c(c1C)OCC(=CSc1ccc(F)cc1)C2=Nc1ccc(C)cc1` [Example 1-52], for which the “activity (mortality in %)” value in series [5] worked out at 85%.

In the case of `CC1C(=CSc2ccccc2)C(=Nc2ccccc2)c2ccccc21` (mixture of isomers) [Example 1-13], the “activity (beetle larvae killed)” value in series [3] is on record as 100%. Further, in series [4], the “activity (caterpillars killed)” value worked out at 100%. Moreover, the “activity (aphids killed)” value in series [2] turned out to be 100%. For the same compound, in series [1], the “activity (spider mites killed)” value came out at 100%.

For the compound `Cc1ccc(N=C2C=CC(C)(C)CC2=CSc2ccc(F)cc2)cc1C` [Example 1-64], the “activity (caterpillars killed)” value in series [4] is listed as 100%. The “activity (aphids killed)” value in series [2] stood at 80%. Besides, the “activity (spider mites killed)” value in series [1] is reported as 80%. Moreover, the knock-down activity in series [5] was determined as 100%.

Consider `Cc1ccc(N=C2C(=CSc3ccc(F)cc3)CCc3ccccc32)cc1C#N` [Example 1-68], for which the “activity (beetle larvae killed)” value in series [3] was determined as 100%. In addition, in series [4], the “activity (caterpillars killed)” value was 100%. Moreover, the “activity (spider mites killed)” value in series [1] was found to be 100%.

In the case of `c1ccc(N=C2c3ccccc3C(c3ccccc3)C2C(Sc2ccccc2)Sc2ccccc2)cc1` (mixture of isomers) [Example 2-10], the “activity (caterpillars killed)” value in series [4] was determined as 100%. In series [2], the “activity (aphids killed)” value is reported as 100%. Besides, the “activity (spider mites killed)” value in series [1] came to 100%.
